Legend:
Format in all cases: in vivo
[1] = tested on: Echinochloa crus-galli (ECHCG); assay: C. Herbicidal pre-emergence efficacy, ECHCG; settings: scored after about 3 weeks
Procedure, shortened: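 Pre-emergence test: formulated compounds sprayed as aqueous suspension or emulsion with 0.5% additive at 600 l/ha onto soil covering sown seeds, at rates corresponding to 320 g/ha or less. After about 3 weeks in greenhouse, efficacy scored visually as percent versus untreated controls (100% = plants dead).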

[2] = tested on: Pharbitis purpurea (PHBPU); assay: E. Herbicidal post-emergence efficacy, PHBPU
Procedure, shortened: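 Visual scoring against untreated plants was done roughly 3 weeks after spraying (0% = no effect, 100% = plants dead). Spray application at 320 g/ha or lower, 600 l/ha water with 0.5% additive, was made onto green parts of one-leaf-stage greenhouse plants grown 2-3 weeks in sandy loam.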

[3] = tested on: Veronica persica (VERPE); assay: B. Herbicidal post-emergence efficacy, VERPE
Procedure, shortened: (§1)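 Visual percent efficacy relative to untreated controls (0% unaffected, 100% dead), scored roughly 3 weeks after foliar spraying of one-leaf-stage pot-grown plants with WP or EC preparations at application rates up to 1280 g/ha in 600 L/ha water containing 0.5% additive.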

[4] = tested on: Abutilon theophrasti (ABUTH); assay: B. Herbicidal post-emergence efficacy, ABUTH; settings: rated visually after about 3 weeks
Procedure, shortened: as §1

[5] = tested on: Polygonum convolvulus (POLCO); assay: C. Herbicidal pre-emergence efficacy, POLCO; settings: scored after about 3 weeks
Description: Seeds of monocotyledonous and dicotyledonous weed plants and crop plants were placed in plastic or organic planting pots and covered with soil. The compounds of the invention, formulated in the form of wettable powders (WP) or as emulsion concentrates (EC), were then applied to the surface of the covering soil as aqueous suspension or emulsion with addition of 0.5% additive at a water application rate equivalent to 600 l/ha (converted). After the treatment, the pots were placed in a greenhouse and kept under good growth conditions for the test plants. After about 3 weeks, the efficacy of the preparations was scored visually in comparison with untreated controls as percentages. For example, • 100% efficacy=plants have died, • 0% efficacy=like untreated control plants.
Tables C1a to C14b below show the effects of selected compounds of the general formula (I) according to table 1 on various harmful plants at an application rate corresponding to 320 g/ha or less, which were obtained by the experimental procedure mentioned above.

[6] = tested on: Digitaria sanguinalis (DIGSA); assay: A. Herbicidal pre-emergence efficacy, DIGSA; settings: scored visually after about 3 weeks vs untreated controls
Procedure, shortened: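 Applied before emergence onto covering soil at rates of 1280 g/ha or less, using 600 L/ha spray water with 0.5% additive. Scoring: visual % efficacy after ~3 weeks, greenhouse.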

[7] = tested on: Digitaria sanguinalis (DIGSA); assay: B. Herbicidal post-emergence efficacy, DIGSA; settings: rated visually after about 3 weeks
Procedure, shortened: as §1

Structure (SMILES) | Pre-emergence efficacy against ECHCG ([1]; 320 g/ha) [%] | Post-emergence efficacy against PHBPU in % ([2]; application rate 80 g/ha) [%] | Post-emergence efficacy against PHBPU in % ([2]; application rate 320 g/ha) [%] | Post-emergence efficacy against VERPE ([3]; 80 g/ha) [%] | Post-emergence efficacy against VERPE ([3]; 320 g/ha) [%] | Post-emergence efficacy against VERPE ([3]; 1280 g/ha) [%] | Post-emergence efficacy against ABUTH in % ([4]; 80 g/ha) [%] | Post-emergence efficacy against ABUTH in % ([4]; 320 g/ha) [%] | Post-emergence efficacy against ABUTH in % ([4]; 1280 g/ha) [%] | Pre-emergence efficacy against POLCO ([5]; 80 g/ha) [%] | Pre-emergence efficacy against POLCO ([5]; 320 g/ha) [%] | Pre-emergence efficacy against DIGSA ([6]; 80 g/ha) [%] | Pre-emergence efficacy against DIGSA ([6]; 320 g/ha) [%] | Pre-emergence efficacy against DIGSA ([6]; 1280 g/ha) [%] | Post-emergence efficacy against DIGSA in % ([7]; 1280 g/ha) [%] | Pre-emergence efficacy against ECHCG ([1]; 80 g/ha) [%] | Post-emergence efficacy against DIGSA in % ([7]; 320 g/ha) [%]
O=S(=O)(CCCCCl)Oc1ccccc1Oc1ncc(Cl)cn1 [Example I-15] | 90 | 90 | 100 | 100 | 100 | 100 | 100 | 100 | 100 | 80 | 100 |  |  |  |  |  | 
Cc1cccc(Oc2ncc(Cl)cn2)c1OS(=O)(=O)CCCC(F)(F)F [Example I-28, 2-[(5-Chloropyrimidin-2-yl)oxy]-6-methylphenyl 4,4,4-trifluorobutane-1-sulfonate] |  |  |  | 100 | 100 | 100 |  | 100 | 100 |  |  | 90 | 100 | 100 | 90 |  | 
O=S(=O)(CCCC(F)(F)F)Oc1ccccc1Oc1ncc(Cl)cn1 [Example I-10] | 100 | 100 | 100 |  |  |  | 90 | 90 | 90 | 90 | 100 |  |  |  |  | 100 | 
O=S(=O)(CCCCl)Oc1cccc(F)c1Oc1ncc(Cl)cn1 [Example I-13] | 80 |  |  | 90 | 100 | 100 |  |  | 90 |  |  |  |  | 100 | 90 |  | 
O=S(=O)(CCCC(F)(F)F)Oc1c(Br)cccc1Oc1ncc(Cl)cn1 [Example I-30] |  |  |  | 90 | 100 | 100 | 90 | 90 | 100 |  |  |  | 100 | 100 | 90 |  | 
O=S(=O)(CC1CC1(Cl)Cl)Oc1c(F)cccc1Oc1ncc(Cl)cn1 (stereo not shown) [Example I-57] |  |  |  | 90 |  | 90 | 90 | 90 | 90 |  |  | 90 | 100 | 100 | 90 |  | 90
CCCCS(=O)(=O)Oc1ccccc1Oc1ncc(Cl)cn1 [Example I-6] | 100 | 80 | 100 |  | 90 | 90 |  | 90 | 90 | 90 | 90 |  |  |  |  | 100 | 
Cc1cccc(Oc2ncc(Cl)cn2)c1OS(=O)(=O)CCC(F)(F)F [Example I-29] |  |  |  | 90 | 90 | 100 | 90 | 100 | 100 |  |  | 90 | 100 | 100 | 100 |  | 
O=S(=O)(CCCCl)Oc1ccccc1Oc1ncc(F)cn1 [Example I-5] | 100 |  | 80 | 100 | 100 | 100 | 90 | 100 | 100 | 90 | 100 |  |  |  |  | 100 | 
O=S(=O)(CCC(F)(F)F)Oc1ccccc1Oc1ncc(Cl)cn1 [Example I-8] | 100 |  | 100 |  |  | 90 |  |  | 90 | 90 | 90 |  |  |  |  | 100 | 
Cc1cccc(OS(=O)(=O)CCCCl)c1Oc1ncc(Cl)cn1 [Example I-12] | 90 | 90 | 90 |  |  | 90 |  |  |  |  |  |  |  |  |  | 90 | 
CC(C)CS(=O)(=O)Oc1ccccc1Oc1ncc(Cl)cn1 [Example I-7, [2-(5-Chloropyrimidin-2-yl)oxyphenyl] 2-methylpropane-1-sulfonate] | 100 |  | 90 |  |  |  |  | 90 | 90 | 90 | 100 |  |  |  |  | 100 | 
CCCS(=O)(=O)Oc1ccccc1Oc1ncc(Cl)cn1 [Example I-3] | 100 |  | 90 | 90 | 100 | 100 |  | 90 | 100 |  | 100 |  |  |  |  | 90 | 
O=S(=O)(CCl)Oc1ccccc1Oc1ncc(Cl)cn1 [Example I-9] | 90 |  |  |  |  | 100 |  | 90 | 90 |  | 90 |  |  |  |  |  | 
O=S(=O)(CCCCl)Oc1ccccc1Oc1ncc(Cl)cn1 [Example I-2] | 100 |  | 100 | 100 | 100 | 100 | 100 | 100 | 100 | 90 | 100 |  |  |  |  | 90 | 
